According to US7705029B2 (Synta Pharmaceuticals Corp., priority 2004, dated 2010):

System: IL-2 production in a Human Jurkat Cell Line
Assay: Inhibition of IL-2 production in PHA-stimulated Jurkat cells (IL-2 ELISA)
Assay type: cell-based
Conditions: Homo sapiens, Jurkat, 20 h, read-out: IC50 (concentration at which IL-2 release is inhibited by 50%)
Experimental: Jurkat cells (ATCC, Cat# TIB-152) were grown in RPMI1640 medium (ATCC, Cat# 30-2001) containing 10% of FBS (ATCC, Cat# 30-2020). For compound screening, Jurkat cells were plated in 96-well plates at a density of 0.5 million cells per well in RPMI1640 medium containing 1% of FBS. Then, various concentrations of each test compound were added to the cell plates followed by addition of PHA (Sigma, Cat# L-9017) at a final concentration of 2.5 μg/ml to stimulate IL-2 production. Cells were then incubated at 37° C. (+5% CO2) for 20 hours before ELISA assay. After 20 hours incubation, cell plates were centrifuged at 500-800 g for 5 minutes and the supernatants was collected for IL-2 detection using the human IL-2 ELISA kit purchased from Cell Sciences (Cat# 851.500.020). The ELISA assay for IL-2 production was done in 96-well plates using a protocol provided by Cell Sciences.
The IC50 (i.e., the concentration at which IL-2 release is inhibited by 50%) was determined and the results are shown in the Table. […] The designation “A” means an IC50 less than 0.010 μM; the designation B means an IC50 between 0.010 and 1.0 μM; and the designation “C” mean an IC50 greater than 1 μM.

| SMILES | IC50 |
| --- | --- |
| Cc1cc(C(F)(F)F)n(-c2ccc(C=C(C#N)c3ccc(F)cc3F)cc2)n1 [Compound 19, 2-(2,4-Difluoro-phenyl)-3-[4-(3-methyl-5-trifluoromethyl-pyrazol-1-yl)-phenyl]-acrylonitrile] | 0.01 to 1 µM |
| Cc1cc(C(F)(F)F)n(-c2ccc(C=C(C#N)c3c(F)cccc3F)cc2)n1 [Compound 20, 2-(2,6-Difluoro-phenyl)-3-[4-(3-methyl-5-trifluoromethyl-pyrazol-1-yl)-phenyl]-acrylonitrile] | 0.01 to 1 µM |
| Cc1cc(C(F)(F)F)n(-c2ccc(C=C(C#N)c3ccc(F)c(F)c3)cc2)n1 [Compound 21, 2-(3,4-Difluoro-phenyl)-3-[4-(3-methyl-5-trifluoromethyl-pyrazol-1-yl)-phenyl]-acrylonitrile] | 0.01 to 1 µM |
| Cc1cc(C(F)(F)F)n(-c2ccc(C=C(C#N)c3cc(F)cc(F)c3)cc2)n1 [Compound 22, 2-(3,5-Difluoro-phenyl)-3-[4-(3-methyl-5-trifluoromethyl-pyrazol-1-yl)-phenyl]-acrylonitrile] | 0.01 to 1 µM |
| N#CC(=Cc1ccc(-n2cccn2)cc1)c1ccccc1 [Compound 23, 2-Phenyl-3-(4-pyrazol-1-yl-phenyl)-acrylonitrile] | > 1 µM |
| N#CC(=Cc1ccc(-n2cccn2)cc1)c1cc(F)ccc1F [Compound 24, 2-(2,5-Difluoro-phenyl)-3-(4-pyrazol-1-yl-phenyl)-acrylonitrile] | > 1 µM |
| N#C/C(=C\c1ccc(-n2nc(C(F)(F)F)cc2C(F)(F)F)cc1)C(=O)c1cccc(F)c1F [Compound 25, 3-[4-(3,5-Bis-trifluoromethyI-pyrazol-1-yl)-phenyl]-2-(2,3-difluoro-benzoyl)-acrylonitrile] | > 1 µM |
| N#CC(=Cc1ccc(-n2ccc(-c3cccs3)n2)cc1)C(=O)c1ccccc1 [Compound 28, 2-Benzoyl-3-[4-(3-thiophen-2-yl-pyrazol-1-yl)-phenyl]-acrylonitrile] | > 1 µM |
| Cc1ccn(-c2ccc(C=C(C#N)C(=O)c3ccco3)cc2)n1 [Compound 29, 2-(Furan-2-carbonyl)-3-[4-(3-methyl-pyrazol-1-yl)-phenyl]-acrylonitrile] | > 1 µM |
| N#CC(=Cc1ccc(-n2cccn2)cc1)C(=O)c1ccccc1 [Compound 30, 2-Benzoyl-3-(4-pyrazol-1-yl-phenyl)-acrylonitrile] | > 1 µM |
| N#CC(=Cc1ccc(-n2ccc(-c3ccccc3)n2)cc1)C(=O)c1ccco1 [Compound 31, 2-(Furan-2-carbonyl)-3-[4-(3-phenyl-pyrazol-1-yl)-phenyl]-acrylonitrile] | > 1 µM |
| N#CC(=Cc1ccc(-n2nc(C(F)(F)F)cc2C(F)(F)F)cc1)C(=O)c1ccco1 [Compound 33, 3-[4-(3,5-Bis-trifluoromethyl-pyrazol-1-yl)-phenyl]-2-(furan-2-carbonyl)-acrylonitrile] | > 1 µM |
| N#CC(=Cc1ccc(-n2nc(C(F)(F)F)cc2C(F)(F)F)cc1)C(=O)c1ccc(F)cc1F [Compound 34, 3-[4-(3,5-Bis-trifluoromethyl-pyrazol-1-yl)-phenyl]-2-(2,4-difluoro-benzoyl)-acrylonitrile] | > 1 µM |
| N#CC(=Cc1ccc(-n2ccc(-c3ccccc3)n2)cc1)C(=O)c1cccc(F)c1F [Compound 35, 2-(2,3-Difluoro-benzoyl)-3-[4-(3-phenyl-pyrazol-1-yl)-phenyl]-acrylonitrile] | > 1 µM |
| N#CC(=Cc1ccc(-n2ccc(C(F)(F)F)n2)cc1)C(=O)c1ccc(F)cc1F [Compound 37, 2-(2,4-Difluoro-benzoyl)-3-[4-(3-trifluoromethyl-pyrazol-1-yl)-phenyl]-acrylonitrile] | > 1 µM |
| N#CC(=Cc1ccc(-n2ccc(C(F)(F)F)n2)cc1)C(=O)c1cccc(F)c1F [Compound 38, 2-(2,3-Difluoro-benzoyl)-3-[4-(3-trifluoromethyl-pyrazol-1-yl)-phenyl]-acrylonitrile] | > 1 µM |
| Cc1cc(C(F)(F)F)n(-c2ccc(C=C(C#N)C(=O)c3ccc(F)cc3F)cc2)n1 [Compound 39, 2-(2,4-Difluoro-benzoyl)-3-[4-(3-methyl-5-trifluoromethyl-pyrazol-1-yl)-phenyl]-acrylonitrile] | > 1 µM |
| Cc1cc(C(F)(F)F)n(-c2ccc(C=C(C#N)C(=O)c3cc(F)ccc3F)cc2)n1 [Compound 40, 2-(2,5-Difluoro-benzoyl)-3-[4-(3-methyl-5-trifluoromethyl-pyrazol-1-yl)-phenyl]-acrylonitrile] | > 1 µM |
| N#CC(=Cc1ccc(-n2ccc(C(F)(F)F)n2)cc1)C(=O)c1cc(F)ccc1F [Compound 41, 2-(2,5-Difluoro-benzoyl)-3-[4-(3-trifluoromethyl-pyrazol-1-yl)-phenyl]-acrylonitrile] | > 1 µM |
| N#CC(=Cc1ccc(-n2ccc(C(F)(F)F)n2)cc1)c1cc(F)ccc1F [Compound 42, 2-(2,5-Difluoro-phenyl)-3-[4-(3-trifluoromethyl-pyrazol-1-yl)-phenyl]-acrylonitrile] | > 1 µM |
| N#CC(=Cc1cccc(-n2nc(C(F)(F)F)cc2C(F)(F)F)c1)c1cccc(F)c1F [Compound 43, 3-[3-(3,5-Bis-trifluoromethyl-pyrazol-1-yl)-phenyl]-2-(2,3-difluoro-phenyl)-acrylonitrile] | > 1 µM |
| N#CC(=Cc1cccc(-n2nc(C(F)(F)F)cc2C(F)(F)F)c1)c1cc(F)ccc1F [Compound 44, 3-[3-(3,5-Bis-trifluoromethyl-pyrazol-1-yl)-phenyl]-2-(2,5-difluoro-phenyl)-acrylonitrile] | > 1 µM |
| N#CC(=Cc1ccc(-n2c(C(F)(F)F)nc3ccccc32)cc1)c1cccc(F)c1F [Compound 45, 2-(2,3-Difluoro-phenyl)-3-[4-(2-trifluoromethyl-benzoimidazol-1-yl)-phenyl]-acrylonitrile] | 0.01 to 1 µM |
| N#CC(=Cc1ccc(-n2c(C(F)(F)F)nc3ccccc32)cc1)c1cc(F)ccc1F [Compound 46, 2-(2,5-Difluoro-phenyl)-3-[4-(2-trifluoromethyl-benzoimidazol-1-yl)-phenyl]-acrylonitrile] | 0.01 to 1 µM |
| N#CC(=Cc1ccc(-n2cccn2)cc1)c1ccccc1F [Compound 48, 2-(2-Fluoro-phenyl)-3-(4-pyrazol-1-yl-phenyl)-acrylonitrile] | > 1 µM |
